Entries after “also recorded” stand apart in the source; their conditions may differ.
Tests used:
HEK293 cells = test: Cell viability and toxicity (CellTiter-Glo); assay type: cell-based; conditions: at concentrations greater than 2 μg/mL
Procedure: HEK293 cells were plated at 20 k cells/well and exposed to vehicle (DMSO), digitonin (positive control for cell death), or JRW-0344 for 10 min/30 min/120 min/240 min/or 18 hrs. CellTiter-Glo (Promega Corp.) was added, and luminescence measured.

[1] = system: Beta-2 Adrenergic Receptor-Nluc (B2AR-Nluc) fusion protein; test: Cell permeability, B2AR-Nluc in HEK293 or HeLa cells -/+ digitonin; assay type: cell-based
Procedure: HEK293 or HeLa cells were transiently transfected with Beta-2 Adrenergic Receptor-Nluc (B2AR-Nluc) fusion protein to anchor and orient Nluc cytosolically. 24 hrs post-transfection, cells were treated with −/+50 μg/mL digitonin to emulate a live and lytic scenario, respectively. Then, intact cells and permeabilized cells were exposed to a compound response curve of thienopyrrole compound up to 2 hrs. 10 μM furimazine (Promega Corp.) was added, and luminescence was measured. If a thienopyrrole compound (inhibitor) was permeable, the dose-response curves for both live and permeabilized cells overlapped. However, if a thienopyrrole compound was impermeable, the EC50 was right-shifted in the live cells relative to the permeabilized cells.

[2] = system: Nluc-HALOTAG labeled with NANOBRET 618 ligand; test: Inhibition of extracellular BRET; assay type: cell-based; conditions: HEK293 Nluc-HDAC6; 10 ng/mL extracellular Nluc-HALOTAG/NANOBRET 618; 2 hrs
Procedure: HEK293 were transiently transfected with an Nluc-HDAC6 fusion protein to orient Nluc-HDAC6 inside the cell. 24 hrs post-transfection, cells were treated 10 ng/mL purified Nluc-HALOTAG labeled with NANOBRET 618 ligand to simulate spurious extracellular BRET. Cells were then exposed to a compound response curve of the thienopyrrole compounds, JRW-0013, JRW-0051, JRW-0147, and JRW-0187, for 2 hrs. 10 μM furimazine was then added, and BRET ratio 610/450 nm was measured.

[3] = molecular target: T1, purified Nluc (extracellular); Nluc-HALOTAG fusion protein (intracellular) (Oplophorus gracilirostris, UniProt Q9GV45, A31E/A60N/A81I/F95D/I117V/K70R/L54V/L99Q/M102K/N193R/P142E/Q151K/Q38R/Q45L/V71I/Y165I); test: Inhibition of extracellular luciferase activity and enhancement of intracellular BRET; assay type: cell-based; conditions: HEK293 Nluc-HALOTAG + NANOBRET 618; 10 ng/mL extracellular purified Nluc; 2 hrs
T1 construct: expressed in transfected cells; host or cells: HEK293 (Nluc-HaloTag); purified Nluc added from outside
T1 sequence (Q9GV45 28-196 with tags or gaps with the stated changes limits assumed): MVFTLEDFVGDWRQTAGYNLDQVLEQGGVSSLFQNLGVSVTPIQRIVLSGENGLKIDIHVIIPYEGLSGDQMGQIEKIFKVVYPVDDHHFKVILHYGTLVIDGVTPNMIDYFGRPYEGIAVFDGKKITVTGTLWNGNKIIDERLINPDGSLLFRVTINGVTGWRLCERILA
Procedure: HEK293 were transiently transfected with Nluc-HALOTAG fusion protein to orient Nluc-HALOTAG inside the cell. 24 hrs post-transfection, cells were labeled with NANOBRET 618 ligand to simulate specific intracellular BRET. Cells were then treated 10 ng/mL purified Nluc to simulate spurious extracellular luminescence. Cells were exposed to a compound response curve of the thienopyrrole compounds, JRW-0013, JRW-0051, JRW-0147, and JRW-0187, for 2 hrs. 10 μM furimazine was added, and the BRET ratio 610/450 nm was measured.

NANOLUC® enzyme = NANOLUC® enzyme (Oplophorus gracilirostris, UniProt Q9GV45, A31E/A60N/A81I/F95D/I117V/K70R/L54V/L99Q/M102K/N193R/P142E/Q151K/Q38R/Q45L/V71I/Y165I); test: Inhibitor IC50 determination (NANOLUC enzyme, furimazine); assay type: biochemical; conditions: IC50 (uM), 0.4 ng/ml NANOLUC enzyme, final furimazine 10 uM (at Km)
NANOLUC® enzyme, sequence (Q9GV45 28-196 with tags or gaps with the stated changes limits assumed): as above

purified Nluc enzyme = molecular target: T2, purified Nluc enzyme (Oplophorus gracilirostris, UniProt Q9GV45, A31E/A60N/A81I/F95D/I117V/K70R/L54V/L99Q/M102K/N193R/P142E/Q151K/Q38R/Q45L/V71I/Y165I); assay type: biochemical; conditions: titration up to 100 μM final; RT 2 hrs; pro-substrate PBI-4442 + DTT
T2 construct: purchased Promega Corporation
T2 sequence (Q9GV45 28-196 with tags or gaps with the stated changes limits assumed): as above
Procedure: In a Corning 3570 assay plate, purified Nluc enzyme (Promega Corporation), 20 mM DTT, and an Nluc pro-substrate (PBI-4442, which is described in US Patent Publication No. 2013/0130289), which is converted to an Nluc substrate upon reduction with DTT, was added. Compound titrations of JRW-0004, JRW-0013, JRW-0006, JRW-0042, JRW-0138, and JRW-0147 were then made (1:2 serial dilution in PBS, 11 points plus no inhibitor control, starting at 200 μM; 100 μM final concentration in reaction). Compound titrations were added in equal volume to the wells of the assay plate. The reactions were incubated at RT for 2 hrs, and luminescence was measured on Tecan M1000 Pro plate reader. Half-maximal inhibitor (thienopyrrole compound) concentrations (IC50s) were determined using GraphPad Prism 6.03.

[4] = system: firefly luciferase, e.g., ULTRAGLO® luciferase; test: Specificity of inhibition: firefly luciferase activity; assay type: biochemical; conditions: 1 μM luciferin in Luciferase Detection Reagent; RT 2 hrs
Procedure: The following example describes the specificity of disclosed thienopyrrole compounds, JRW-0004, JRW-0013, JRW-0006, JRW-0042, JRW-0138, and JRW-0147, to inhibit Nluc luciferase activity versus firefly luciferase activity, e.g., ULTRAGLO® luciferase. In a Corning 3570 assay plate, a solution containing 1 μM luciferin in Luciferase Detection Reagent (Promega Corporation V865/859) was added to the assay wells. An equal volume of titrations the thienopyrrole compounds, JRW-0004, JRW-0013, JRW-0006, JRW-0042, JRW-0138, and JRW-0147 were then added to the wells. The reactions were incubated at RT for 2 hrs, and luminescence was measured on Tecan M1000 Pro plate reader.

[5] = system: B2AR-Nluc or Nluc-B2AR fusion protein; test: Cell permeability with bioluminescent imaging (HeLa, B2AR-Nluc / Nluc-B2AR); assay type: cell-based; conditions: 30 μM compound, 10 μM furimazine
Procedure: HeLa cells were transiently transfected with Beta-2 Adrenergic Receptor-Nluc (B2AR-Nluc; C-Terminus Nluc) or Nluc-Beta-2 Adrenergic Receptor (Nluc-B2AR; N-terminus Nluc) fusion protein to anchor and orient Nluc intracellularly or extracellularly, respectively. 24 hrs post-transfection, cells were treated with −/+30 μM of a thienopyrrole compound, JRW-0147, JRW-0051, and JRW-0138. 10 μM furimazine was added, and luminescence was detected by imaging on the Olympus LV200.

Nluc enzyme = test: Multiplex RealTime-Glo / Caspase-Glo 3/7 in MCF7 cells; assay type: cell-based
Procedure: (§1) A) In a Corning 3570 assay plate, MCF7 cells were plated at 1,000 cells/well in 20 μL of cell culture media (EMEM supplemented with 0.01 mg/mL human recombinant insulin and 10% fetal bovine serum) and incubated in overnight. 10 μL of 4× REALTIME-GLO™ MT Cell Viability reagents (Promega Corporation) in media or 10 μL media only was added to the cells. 10 μL of 40 μM staurosporine in media or 10 μL media only (control) was added to the cells. The cells were incubated, and caspase activation monitored at 5.5 hrs post-reagent addition. To monitor caspase activation, 40 μL CASPASE-GLO® 3/7 Assay Reagent (Promega Corporation), either on its own (Caspase) or with 200 μM of JRW-0004, JRW-0013, or JRW-0042, was added. Reactions were incubated at RT, and luminescence was measured at 1 hr 10 min post-reagent addition on Tecan M1000 Pro plate reader.
(§2) When comparing the signal generated from the CASPASE-GLO® reagent in media only versus the signal generated in media containing REALTIME-GLO™ reagent, the signal is higher in the multiplex reaction.

Nluc = Nluc (Oplophorus gracilirostris, UniProt Q9GV45, A31E/A60N/A81I/F95D/I117V/K70R/L54V/L99Q/M102K/N193R/P142E/Q151K/Q38R/Q45L/V71I/Y165I); test: as above; assay type: cell-based; design: purchased Promega Corporation
Nluc, sequence (Q9GV45 28-196 with tags or gaps with the stated changes limits assumed): as above
Procedure: as §1, §2

[6] = 10 μM Stauro vs Control, 200 μM compound
[7] = CASPASE-GLO 3/7 reagent with 200 μM compound, 1 hr 10 min

Row | Compound | Cell permeability [1] | BRET ratio 610/450 nm across compound dose-response curve (FIGS. 12B-12E) [2] | BRET ratio 610/450 nm across compound dose-response curve (FIGS. 13B-13E) [3] | IC50 (NANOLUC® enzyme) [µM] | Inhibition of purified Nluc enzyme (FIG. 2) (purified Nluc enzyme) | Inhibition of firefly luciferase activity (FIG. 3) [4] | Permeability and inhibition of extracellular / intracellular Nluc by imaging (FIG. 14) [5] | other results
1 | C[C@@H]1CC[C@@]2(OC1)O[C@H]1[C@@H](O)[C@H]3[C@@H]4CC[C@H]5C[C@@H](O[C@@H]6O[C@H](CO)[C@H](O[C@@H]7O[C@H](CO)[C@@H](O)[C@H](O[C@@H]8OC[C@@H](O)[C@H](O)[C@H]8O)[C@H]7O[C@@H]7O[C@H](CO)[C@H](O)[C@H](O[C@@H]8O[C@H](CO)[C@@H](O)[C@H](O)[C@H]8O)[C@H]7O)[C@H](O)[C@H]6O)[C@H](O)C[C@]5(C)[C@H]4CC[C@]3(C)[C@H]1[C@@H]2C [Digitonin, reference compound] | – | – | – | – | – | – | – | Cell death (FIG. 18B) (HEK293 cells): almost complete death
2 | CCN(C(=O)Cn1c(C(=O)N[C@H]2CC[C@H](C(=O)N3CCC(C(=O)O)CC3)CC2)cc2sccc21)c1cccc(C)c1 [JRW-0187, 1-(trans-4-(4-(2-(ethyl(m-tolyl)amino)-2-oxoethyl)-4H-thieno[3,2-b]pyrrole-5-carboxamido)cyclohexane-1-carbonyl)piperidine-4-carboxylic acid] | cell-impermeable | BRET ratio decreased | intracellular BRET ratio was enhanced | – | – | – | – | –
3 | CCCCCCNC(=O)[C@H]1CC[C@H](NC(=O)c2cc3sccc3n2CC(=O)N(CC)c2cccc(C)c2)CC1 [JRW-0138, 4-(2-(ethyl(m-tolyl)amino)-2-oxoethyl)-N-(trans-4-(hexylcarbamoyl)cyclohexyl)-4H-thieno[3,2-b]pyrrole-5-carboxamide] | cell-permeable | – | – | 0.13 | capable of inhibiting purified Nluc enzyme | do not inhibit firefly luciferase activity; also recorded: did not inhibit the firefly luciferase activity | cell permeable and inhibited both intracellular and extracellular Nluc | –
4 | CCCCNC(=O)[C@H]1CC[C@H](NC(=O)c2cc3sccc3n2CC(=O)N(CC)c2cccc(C)c2)CC1 [JRW-0042, N-(trans-4-(butylcarbamoyl)cyclohexyl)-4-(2-(ethyl(m-tolyl)amino)-2-oxoethyl)-4H-thieno[3,2-b]pyrrole-5-carboxamide] | – | – | – | 0.31 | capable of inhibiting purified Nluc enzyme | do not inhibit firefly luciferase activity; also recorded: did not inhibit the firefly luciferase activity | – | Fold Cont, Media only (Nluc enzyme; [6]): 5.81; Avg (luminescence), Media only, 10 μM Stauro (Nluc enzyme; [7]): 62280; Avg (luminescence), Media only, Control (Nluc enzyme; [7]): 10718; Fold Cont, Media containing RealTime-Glo (Nluc; [6]): 5.05; Avg (luminescence), Media containing RealTime-Glo, 10 μM Stauro (Nluc; [7]): 53956; Avg (luminescence), Media containing RealTime-Glo, Control (Nluc; [7]): 10679
5 | CCN(C(=O)Cn1c(C(=O)N[C@H]2CC[C@H](C(=O)NCCCC(=O)O)CC2)cc2sccc21)c1cccc(C)c1 [JRW-0051, 4-(trans-4-(4-(2-(ethyl(m-tolyl)amino)-2-oxoethyl)-4H-thieno[3,2-b]pyrrole-5-carboxamido)cyclohexane-1-carboxamido)butanoic acid] | cell-impermeable | BRET ratio decreased | intracellular BRET ratio was enhanced | 0.74 | – | – | impermeable and inhibited extracellular Nluc and enhanced intracellular Nluc | –

Source: patent US10513694B2, “Thienopyrrole compounds and uses thereof” (PROMEGA CORPORATION, priority 2015, dated 2019)
